Like-named read-outs stand apart in the source and are kept apart here.
Tests used:
[1] = CARIV-A-001 Part B: cross-over IV infusion over 2 hours vs oral tablet 100 mg/kg in healthy subjects; format: in vivo, human
Experimental: The levels of CGA in plasma and urine were analysed using a fully validated method, which included LC-MS/MS analysis. The PK data were analysed based on a non-compartmental model. A model-based approach was implemented for the characterization of the PK properties of the IV formulation in order to estimate the level of PK exposure after different doses administered with different duration of infusion. The model outcomes provided rationales for supporting decision-making through the dose escalation process. The PK parameters were determined using SAS (version 9.3), and modelling of the PK data was performed using NONMEM (version 7.3, ICON Solutions). PART A: Mono-Centre, Randomized, Successive Groups, Double-Blind, Placebo-Controlled Study in Healthy Male and Female Subjects
Part B was a randomized, double-blind, cross-over, two-sequence study. It was conducted in 12 healthy male and female subjects.
In two treatment periods, separated by a washout of at least two weeks, subjects received a single administration of the study medication in fasting conditions, either as an IV loading dose infusion of Rec0/0491 over 2 hours (started with 6 mg/kg/h then reduced to 4.0 mg/kg/h), or an oral tablet administration of Carbaglu® (100 mg/kg).
Blood samples for PK measurements were collected at 19 timepoints for the IV administration and 17 timepoints for the oral administration. This included a sample prior to intake of the study medication and the period ranging from 20 minutes to 72 hours following the initiation of the IV infusion, and the period ranging from 30 minutes to 72 hours following oral intake. Urine was also collected for PK measurements, at the following intervals relative to the time of administration of the study medication: 0-6, 6-12, 12-24, 24-36 and 36-48 hours.
The PK analysis of Carbaglu was conducted on all subjects showing quantifiable plasma levels using standard non-compartmental approach.

plasma NH3 = settings: cited from earlier work
[2] = dose normalized section, Reference (IV data), in h
[3] = dose normalized section, Test (oral data), in h
[4] = dose normalized, Reference (IV data)
[5] = dose normalized, Test (oral data)
[6] = in most cases, carglumic acid alone, 13 episodes
[7] = second block headed All (N = 5), First 24 hrs
[8] = second block headed All (N = 5), First 48 hrs

NC(=O)N[C@@H](CCC(=O)O)C(=O)O [carglumic acid, N-carbamoyl-L-glutamic acid]
AUC ([1]; both sexes, human, plasma, IV, 12 mg/kg, N 2, read-out: aucL, Median): 52100 ng·h/mL | refHalf_life, Max [1, 2]: 52.95 | refHalf_life, Mean [1, 2]: 31.351 | refHalf_life, Median [1, 2]: 28.81 | refHalf_life, Min [1, 2]: 22.85 | testHalf life, Mean ([1]; dose normalized section, Test (oral data)): 24.6 h | testHalf_life, Max [1, 3]: 35.31 | testHalf_life, Median [1, 3]: 23.71 | testHalf_life, Min [1, 3]: 17.56 | refAUCinf, Max [1, 4]: 5219 | refAUCinf, Mean [1, 4]: 3299.58 | refAUCinf, Median [1, 4]: 3162.4 | refAUCinf, Min [1, 4]: 2118.74 | refAUClast, Max [1, 4]: 5084.78 | refAUClast, Mean [1, 4]: 3105.22 | refAUClast, Median [1, 4]: 2840.05 | refAUClast, Min [1, 4]: 1964.13 | refCL, Max [1, 4]: 0.059 | refCL, Mean [1, 4]: 0.038 | refCL, Median [1, 4]: 0.04 | refCL, Min [1, 4]: 0.016 | refCmax, Max [1, 4]: 1958.33 | refCmax, Mean [1, 4]: 1195.1 | refCmax, Median [1, 4]: 1148.13 | refCmax, Min [1, 4]: 675 | testAUCinf, Max [1, 5]: 456.96 | testAUCinf, Mean [1, 5]: 314.25 | testAUCinf, Min [1, 5]: 218.52 | testAUClast, Max [1, 5]: 442.5 | testAUClast, Mean [1, 5]: 298.07 | testAUClast, Min [1, 5]: 200.31 | testCL, Max [1, 5]: 0.046 | testCL, Mean [1, 5]: 0.033 | testCL, Min [1, 5]: 0.022 | testCmax, Max [1, 5]: 56.2 | testCmax, Mean [1, 5]: 32.84 | testCmax, Min [1, 5]: 19.5 | Absolute bioavailability F of the oral vs IV formulation, Mean ([1]; from dose normalized AUCinf, 12 subjects): 9.87% | Total clearance after oral administration corrected by the bioavailability value of F=9.87% ([1]; oral): 5.83 mL/min/kg | Plasma NH3 level, Mean (SD) (plasma NH3; All episodes, First 24 hrs): 94.6 (47.6) micromol/L | Plasma NH3 level, Median (plasma NH3; All episodes, First 24 hrs): 100.0 µmol/L | Plasma NH3 level, Min-Max (plasma NH3; All episodes, First 24 hrs): 43.3 to 187.9 µmol/L | Plasma NH3 level, Q1-Q3 (plasma NH3; All episodes, First 24 hrs): 50.0 to 110.5 µmol/L | Plasma NH3 level, Mean (SD) (plasma NH3; All episodes, First 48 hrs): 80.5 (43.4) micromol/L | Plasma NH3 level, Median (plasma NH3; All episodes, First 48 hrs): 66.0 µmol/L | Plasma NH3 level, Min-Max (plasma NH3; All episodes, First 48 hrs): 32.0 to 187.9 µmol/L | Plasma NH3 level, Q1-Q3 (plasma NH3; All episodes, First 48 hrs): 50.0 to 100.0 µmol/L | Plasma NH3 level, Mean (SD) (plasma NH3; Non-Neonates, First 24 hrs): 106.1 (56.6) micromol/L | Plasma NH3 level, Median (plasma NH3; Non-Neonates, First 24 hrs): 100.0 µmol/L | Plasma NH3 level, Min-Max (plasma NH3; Non-Neonates, First 24 hrs): 47.6 to 187.9 µmol/L | Plasma NH3 level, Q1-Q3 (plasma NH3; Non-Neonates, First 24 hrs): 50.0 to 170.0 µmol/L | Plasma NH3 level, Mean (SD) (plasma NH3; Non-Neonates, First 48 hrs): 81.8 (52.2) micromol/L | Plasma NH3 level, Median (plasma NH3; Non-Neonates, First 48 hrs): 58.0 µmol/L | Plasma NH3 level, Min-Max (plasma NH3; Non-Neonates, First 48 hrs): 32.0 to 187.9 µmol/L | Plasma NH3 level, Q1-Q3 (plasma NH3; Non-Neonates, First 48 hrs): 48.8 to 110.5 µmol/L | Time within which a marked reduction in plasma NH3 levels was observed (plasma NH3; [6]): ≤ 6 h | Time within which plasma NH3 values were normalized (plasma NH3; [6]): ≤ 30 h | Plasma NH3 level, Mean (SD) (plasma NH3; [7]): 78.5 (29.6) micromol/L | Plasma NH3 level, Median (plasma NH3; [7]): 100.0 µmol/L | Plasma NH3 level, Min-Max (plasma NH3; [7]): 42.3 to 100.0 µmol/L | Plasma NH3 level, Q1-Q3 (plasma NH3; [7]): 50.0 to 100.0 µmol/L | Plasma NH3 level, Mean (SD) (plasma NH3; [8]): 78.5 (29.6) micromol/L | Plasma NH3 level, Median (plasma NH3; [8]): 100.0 µmol/L | Plasma NH3 level, Min-Max (plasma NH3; [8]): 42.3 to 100.0 µmol/L | Plasma NH3 level, Q1-Q3 (plasma NH3; [8]): 50.0 to 100.0 µmol/L
